Assay results reported in patent publication US20250388575A1, “HETEROBIFUNCTIONAL COMPOUNDS AND METHODS OF TREATING DISEASE” (Halda Therapeutics OpCo, Inc., priority 2022, published 2025).
Read-outs that look alike come from different tables or passages of the source.

Experiments:
[1] = system: T-Rex 293 cell line SC3 cells having increased expression of androgen receptor protein; assay: Cellular growth inhibition, T-Rex 293 SC3 cells with increased androgen receptor expression (doxycycline), CellTiter-Glo; type: cell-based; conditions: T-Rex 293 SC3 cells with increased androgen receptor expression (exposed to 10 ng/mL doxycycline), 72 hours, CellTiter-Glo; read-out: GI50
Method in brief: (§1)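 SC3, a T-Rex 293 clone with doxycycline-inducible wild-type androgen receptor, was seeded in phenol red-free DMEM with 10% charcoal-dextran FBS, with or without 10 ng/mL doxycycline. Compound added at 24 h (0.5% DMSO) for 72 h at 37° C. CellTiter-Glo 2.0 luminescence; GI50 from four-parameter fit.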

[2] = system: T-Rex 293 cell line SC3 cells lacking increased expression of androgen receptor protein; assay: Cellular growth inhibition, T-Rex 293 SC3 cells lacking increased androgen receptor expression (no doxycycline), CellTiter-Glo; type: cell-based; conditions: T-Rex 293 SC3 cells lacking increased androgen receptor expression (not exposed to doxycycline), 72 hours, CellTiter-Glo; read-out: GI50
Method in brief: as §1

[3] = system: VCaP cells; assay: Cellular growth inhibition assay for VCaP cells, CellTiter-Glo; type: cell-based, human; conditions: VCaP cells, 72 hours, CellTiter-Glo, read-out: GI50
Method in brief: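 GI50 values come from four-parameter curve fits of luminescence data normalized to a zero baseline. Compound, in medium with 0.5% DMSO, was added one day after plating and left for 72 h before CellTiter-Glo 2.0 addition.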

[4] = system: T47D cells; assay: Cellular growth inhibition assay for T47D cells, CellTiter-Glo; type: cell-based, human; conditions: 72 hours treatment, CellTiter-Glo 2.0
Description: T47D cells were purchased from American Type Cell Culture (ATCC Cat #HTB-133) and then seeded on poly-D-lysine coated, black clear-bottom 384-well plates at 3000/well in 25 μL Dulbecco's Modified Eagle Medium (DMEM) supplemented with 10% w/w Fetal bovine serum (FBS), 0.2 units/mL recombinant human insulin (Gibco Cat #12585014), and 1% w/w Pen-Strep. Pen-Strep is a commercially available mixture of penicillin G and streptomycin, which is used in mammalian cell culture media to prevent bacterial contamination. Dulbecco's Modified Eagle Medium (DMEM) supplemented with 10% w/w fetal bovine serum (FBS), 0.2 units/mL recombinant human insulin, and 1% w/w Pen-Strep is herein referred to as Treatment Medium. Following seeding of cells in the plates, the plates were spun at 300×g for 30 seconds, then equilibrated to room temperature for 30 minutes, and then deposited in a humidified tissue culture incubator maintained at 37° C. with 5% CO2.
At 24 hours after seeding of the cells, dilutions of test compound were prepared in DMSO and dissolved in Treatment Medium, to achieve a final DMSO concentration of 0.5% w/w, thereby providing the Test Compound Solution. A 25 μL aliquot of the Test Compound Solution was added to cells in the well plates. An equal volume of a solution containing DMSO and Treatment Medium was used as a negative control. Following treatment of cells with Test Compound Solution or said equal volume of a solution containing DMSO and Treatment Medium, the plates were spun at 300×g for 30 seconds, and then left in an incubator for 72 hours.
At the end of the treatment duration, cell viability was quantified with CellTiter-Glo 2.0 reagent (Promega Cat #G9243). For this purpose, plates were equilibrated to room temperature for 30 minutes, and then 25 μL of CellTiter-Glo 2.0 reagent was added to cells in the plate wells. Plates were then agitated on a shaker for two minutes at 500 rpm and subsequently incubated at room temperature for 10 minutes. Following incubation, the plates were spun at 3000×g for 30 seconds, then sealed with an optical adhesive cover, and luminescence readings were measured with an EnVision Plate Reader (Perkin Elmer).
Data was normalized using zero luminescence for baseline. A four-parameter non-linear regression curve fit was applied to dose-response data in GraphPad Prism data analysis software to determine the half-maximal growth inhibitory concentration (GI50) for each test compound.

GI50 [3] [nM]	GI50 [4] [nM]	GI50 ([3]; Homo sapiens) [nM]	GI50 ([4]; Homo sapiens) [nM]	SMILES	GI50 [1] [nM]	GI50 [2] [nM]
–	–	< 500	< 500	CN(C1CCN(c2ccc(C(=O)N[C@H]3CC[C@H](Oc4ccc(C#N)c(Cl)c4)CC3)nn2)CC1)C1CN(c2cccc(Oc3ccc(C(C)(C)O)cc3-c3cn(C)c(=O)c4[nH]ccc34)c2F)C1 [I-142]	< 500	< 500
< 500	500 to 1500	–	–	Cn1cc(-c2cc(C(C)(C)O)ccc2Oc2ccc(CCC3CCN(c4ccc(C(=O)N[C@H]5CC[C@H](Oc6ccc(C#N)c(Cl)c6)CC5)nn4)CC3)c(F)c2)c2cc[nH]c2c1=O [I-113]	< 500	> 3000
–	–	< 500	< 500	Cn1cc(-c2cc(S(C)(=O)=O)ccc2OC(CCCCN2CCN(c3ccc(C(=O)NC4CCC(Oc5ccc(C#N)c(Cl)c5)CC4)nn3)CC2)C2CC2)c2cc[nH]c2c1=O (stereo not drawn) [I-244, N-[4-(3-chloro-4-cyano-phenoxy)cyclohexyl]-6-[4-[5-cyclopropyl-5-[2-(6-methyl-7-oxo-1H-pyrrolo[2,3-c]pyridin-4-yl)-4-methylsulfonyl-phenoxy]pentyl]piperazin-1-yl]pyridazine-3-carboxamide]	< 500	< 500
< 500	< 500	–	–	Cn1cc(-c2cc(C(C)(C)O)ccc2Oc2ccc(CCCCC3CN(c4ccc(C(=O)N[C@H]5CC[C@H](Oc6ccc(C#N)c(Cl)c6)CC5)nn4)C3)cc2)c2cc[nH]c2c1=O [I-133]	< 500	500 to 1500
–	–	< 500	< 500	CCS(=O)(=O)c1ccc(Oc2ccc(CC3CC4(CCN(c5ccc(C(=O)N[C@H]6CC[C@H](Oc7ccc(C#N)c(Cl)c7)CC6)nn5)CC4)C3)cc2)c(-c2cn(C)c(=O)c3[nH]ccc23)c1 [I-86]	< 500	< 500
< 500	< 500	–	–	Cn1cc(-c2cc(C(C)(C)O)ccc2Oc2ccc(CCC3C4CN(c5ccc(C(=O)N[C@H]6CC[C@H](Oc7ccc(C#N)c(Cl)c7)CC6)nn5)CC34)cc2)c2cc[nH]c2c1=O (stereo partly drawn) [I-134]	< 500	> 3000
< 500	< 500	–	–	CCS(=O)(=O)c1ccc(OC2CC(OC3CC4(CCN(c5ccc(C(=O)N[C@H]6CC[C@H](Oc7ccc(C#N)c(Cl)c7)CC6)nn5)CC4)C3)C2)c(-c2cn(C)c(=O)c3[nH]ccc23)c1 (stereo partly drawn) [I-229]	< 500	< 500
< 500	< 500	–	–	Cn1cc(-c2cc(C(C)(C)O)ccc2Oc2c(F)cc(CCC3CCN(c4ccc(C(=O)N[C@H]5CC[C@H](Oc6ccc(C#N)c(Cl)c6)CC5)nn4)CC3)cc2F)c2cc[nH]c2c1=O [I-115]	< 500	> 3000
–	–	< 500	< 500	CCS(=O)(=O)c1ccc(Oc2ccc(C(C)(C)N3CC4(CN(c5ccc(C(=O)N[C@H]6CC[C@H](Oc7ccc(C#N)c(Cl)c7)CC6)nn5)C4)C3)cc2)c(-c2cn(C)c(=O)c3[nH]ccc23)c1 [I-88]	< 500	< 500
–	–	< 500	< 500	Cn1cc(-c2cc(C(C)(C)O)ccc2Oc2ccc(N3CC(OC4CN(c5ccc(C(=O)N[C@H]6CC[C@H](Oc7ccc(C#N)c(Cl)c7)CC6)nn5)C4)C3)cc2)c2cc[nH]c2c1=O [I-150]	< 500	< 500
< 500	< 500	–	–	Cn1cc(-c2cc(C(C)(C)O)ccc2Oc2ccc(CCC3CN(c4ccc(C(=O)N[C@H]5CC[C@H](Oc6ccc(C#N)c(Cl)c6)CC5)nn4)C3)cc2)c2cc[nH]c2c1=O [I-129]	< 500	< 500
–	–	< 500	< 500	Cn1cc(-c2cc(C(C)(C)O)ccc2Oc2ccc(CCCC3CCN(c4ccc(C(=O)N[C@H]5CC[C@H](Oc6ccc(C#N)c(Cl)c6)CC5)nn4)C3)cc2)c2cc[nH]c2c1=O (stereo partly drawn) [I-135]	< 500	< 500
< 500	< 500	–	–	Cn1cc(-c2cc(C(C)(C)O)ccc2Oc2ccc(CCC3CC4(C3)CN(c3ccc(C(=O)N[C@H]5CC[C@H](Oc6ccc(C#N)c(Cl)c6)CC5)nn3)C4)cc2)c2cc[nH]c2c1=O [I-126]	< 500	< 500
< 500	< 500	–	–	Cn1cc(-c2cc(C(C)(C)O)ccc2Oc2ccc(N3CC4(CCN(c5ccc(C(=O)N[C@H]6CC[C@H](Oc7ccc(C#N)c(Cl)c7)CC6)nn5)CC4)C3)cc2)c2cc[nH]c2c1=O [I-144]	< 500	500 to 1500

Second part, the molecule before the results:

SMILES	GI50 [3] [nM]	GI50 [4] [nM]	GI50 ([3]; Homo sapiens) [nM]	GI50 ([4]; Homo sapiens) [nM]	GI50 [1] [nM]	GI50 [2] [nM]
CCS(=O)(=O)c1ccc(Oc2ccc(CCCCC3CN(c4ccc(C(=O)N[C@H]5CC[C@H](Oc6ccc(C#N)c(Cl)c6)CC5)nn4)C3)cc2)c(-c2cn(C)c(=O)c3[nH]ccc23)c1 [I-73]	< 500	< 500	–	–	< 500	< 500
CCS(=O)(=O)c1ccc(Oc2ccc(CCCC3CN(c4ccc(C(=O)N[C@H]5CC[C@H](Oc6ccc(C#N)c(Cl)c6)CC5)nn4)C3)cc2)c(-c2cn(C)c(=O)c3[nH]ccc23)c1 [I-68]	< 500	< 500	–	–	< 500	< 500
CCS(=O)(=O)c1ccc(Oc2ccc(CN3CC4(CCN(c5ccc(C(=O)N[C@H]6CC[C@H](Oc7ccc(C#N)c(Cl)c7)CC6)nn5)CC4)C3)c(F)c2)c(-c2cn(C)c(=O)c3[nH]ccc23)c1 [I-78]	–	–	< 500	< 500	< 500	< 500
CCS(=O)(=O)c1ccc(Oc2ccc(CCC3CC4(C3)CN(c3ccc(C(=O)N[C@H]5CC[C@H](Oc6ccc(C#N)c(Cl)c6)CC5)nn3)C4)cc2)c(-c2cn(C)c(=O)c3[nH]ccc23)c1 [I-67]	< 500	< 500	–	–	< 500	< 500
Cn1cc(-c2cc(S(=O)(=O)C3CC3)ccc2Oc2ccc(CCC3CCN(c4ccc(C(=O)N[C@H]5CC[C@H](Oc6ccc(C#N)c(Cl)c6)CC5)nn4)CC3)cc2)c2cc[nH]c2c1=O [I-76]	< 500	< 500	–	–	< 500	< 500
CCS(=O)(=O)c1ccc(Oc2ccc(CCCC3C4CN(c5ccc(C(=O)N[C@H]6CC[C@H](Oc7ccc(C#N)c(Cl)c7)CC6)nn5)CC34)cc2)c(-c2cn(C)c(=O)c3[nH]ccc23)c1 (stereo partly drawn) [I-71]	–	–	< 500	< 500	< 500	< 500
CCS(=O)(=O)c1ccc(Oc2ccc(CC3CCN(c4ccc(C(=O)N[C@H]5CC[C@H](Oc6ccc(C#N)c(Cl)c6)CC5)nn4)CC3)c(F)c2)c(-c2cn(C)c(=O)c3[nH]ccc23)c1 [I-80]	–	–	< 500	< 500	< 500	< 500
CCS(=O)(=O)c1ccc(Oc2ccc(OCC3CCN(c4ccc(C(=O)N[C@H]5CC[C@H](Oc6ccc(C#N)c(Cl)c6)CC5)nn4)CC3)cc2F)c(-c2cn(C)c(=O)c3[nH]ccc23)c1 [I-43]	< 500	< 500	–	–	< 500	< 500
CCS(=O)(=O)Nc1ccc(Oc2cccc(N3CC(N4CCN(c5ccc(C(=O)N[C@H]6CC[C@H](Oc7ccc(C#N)c(Cl)c7)CC6)nn5)CC4)C3)c2F)c(-c2cn(C)c(=O)c3[nH]ccc23)c1 [I-12]	–	–	< 500	< 500	< 500	> 3000
CCS(=O)(=O)c1ccc(Oc2cc(F)c(CCC3CCN(c4ccc(C(=O)N[C@H]5CC[C@H](Oc6ccc(C#N)c(Cl)c6)CC5)nn4)CC3)c(F)c2)c(-c2cn(C)c(=O)c3[nH]ccc23)c1 [I-49]	< 500	1500 to 3000	–	–	< 500	< 500
